Calls of active or inactive are those of the source. No cut-off for these calls is given here.
What was measured:
[1] = Inhibition of death receptor signaling mediated necroptotic cell death in human Jurkat cell deficient in FADD assessed as inhibition of plasma membrane permeability after 24 hrs by in presence of TNFalpha; format: cell-based
Jurkat [2] = assay: Inhibition of necrosis in human Jurkat cells assessed as appearance of translucent cytosol in presence of FasL, CHX and zVAD-fmk; format: functional, cell-based
Jurkat [3] = assay: Effect on cell cycle in human Jurkat cells assessed as cells in sub-G1 phase; format: functional, cell-based
NIH3T3 [4] = assay: Effect on microtubule cytoskeleton in mouse 3T3 cells after 24 hrs by anti-tubulin immunofluorescence method in presence of TNFalpha and zVAD-fmk; format: functional, cell-based
[5] = Inhibition of death receptor signaling mediated necroptotic cell death in mouse 3T3 cells assessed as cell viability after 24 hrs by ATP based viability assay in presence of TNFalpha and zVAD-fmk; details: NIH3T3
U-937 = assay: Inhibition of apoptosis in human U937 cells assessed as cell viability after 48 hrs by ATP based viability assay in presence of TNFalpha and CHX; format: functional
NIH3T3 [6] = assay: Effect on morphology of endoplasmic reticulum in mouse 3T3 cells after 24 hrs by anti-KDEL immunofluorescence in presence of TNFalpha and zVAD-fmk; format: functional, cell-based
[7] = Inhibition of death receptor signaling mediated necroptotic cell death in human Jurkat cells deficient in FADD and expressing RIP kinase domain assessed as cell viability after 48 hrs by FACS in presence of AP1510; format: cell-based
[8] = Inhibition of death receptor signaling mediated necrotic cell death in human HL60 cells assessed as cell viability in presence of TNFalpha and zVAD.fmk; format: cell-based; details: HL-60
[9] = Inhibition of death receptor signaling mediated necroptotic cell death in human Jurkat cells deficient in FADD and expressing RIP K45M mutant assessed as cell viability after 48 hrs by FACS in presence of AP1510, zVAD-fmk; format: cell-based
[10] = Inhibition of death receptor signaling mediated necroptotic cell death in human Jurkat cells deficient in FADD assessed as decreased levels of PE-conjugated LC3-II (autophagy marker) after 24 hrs by Western blot method in presence of TNFalpha; format: cell-based
Jurkat [11] = assay: Effect on cell cycle in human Jurkat cells deficient in FADD assessed as cells in sub-G1 phase relative to control; format: functional
Jurkat [12] = assay: Effect on mitochondrial membrane potential in human Jurkat cells; format: functional, cell-based
[13] = Inhibition of death receptor signaling mediated necroptotic cell death in human Jurkat cell deficient in FADD assessed as inhibition of mitochondrial dysfunction after 24 hrs by in presence of TNFalpha; format: cell-based
NIH3T3 [14] = assay: Effect on morphology of nucleus in mouse 3T3 cells after 24 hrs by TO-PRO-3 staining in presence of TNFalpha and zVAD-fmk; format: functional, cell-based
Jurkat [15] = assay: Effect on cell cycle in human Jurkat cells deficient in FADD assessed as cells in G2/M phase in presence of TNFalpha relative to control; format: functional
Jurkat [16] = assay: Antiproliferative activity against human Jurkat cells; format: functional, cell-based
Jurkat [17] = assay: Effect on cell cycle in human Jurkat cells deficient in FADD assessed as cells in S phase in presence of TNFalpha relative to control; format: functional
Jurkat [18] = assay: Effect on changes in cell shape in human Jurkat cells; format: functional, cell-based
Jurkat [19] = assay: Inhibition of necrosis in human Jurkat cells assessed as organelle swelling by bright field microscopy in presence of FasL, CHX and zVAD-fmk; format: functional, cell-based
[20] = Inhibition of death receptor signaling mediated necroptotic cell death in mouse L929 cells assessed as decreased levels of PE-conjugated autophagy marker LC3-II after 24 hrs by Western blot method in presence of TNFalpha; format: cell-based
Jurkat [21] = assay: Inhibition of necrosis in human Jurkat cells deficient in FADD assessed as inhibition of appearance of translucent cytosol in presence of TNFalpha; format: functional, cell-based
Jurkat [22] = assay: Effect on cell cycle in human Jurkat cells deficient in FADD assessed as cells in G1 phase relative to control; format: functional
[23] = Inhibition of death receptor signaling mediated necrotic cell death in mouse 3T3 cells assessed as cell viability after 24 hrs by ATP based viability assay in presence of FasL and zVAD.fmk; details: NIH3T3
Jurkat [24] = assay: Induction of proliferative capacity in necroptotic human Jurkat cell deficient in FADD assessed as cell viability; format: functional, cell-based
[25] = Inhibition of death receptor signaling mediated necrotic cell death in mouse L929 cells assessed as cell viability after 24 hrs by ATP based viability assay in presence of TNFalpha
[26] = Inhibition of death receptor signaling mediated necrotic cell death in human Jurkat cell expressing FADD fused to FKBP12-based dimerization domain (JK-FF)assessed as cell viability after 48 hrs by ATP based viability assay in presence of AP20187 and zVAD.fmk
Jurkat [27] = assay: Effect on cell cycle in human Jurkat cells deficient in FADD assessed as cells in S phase relative to control; format: functional
[28] = Inhibition of death receptor signaling mediated necroptotic cell death in human U937 cell assessed as cell viability after 72 hrs by ATP based viability assay in presence of TNFalpha and zVAD.fmk; details: U-937
[29] = Inhibition of death receptor signaling mediated necroptotic cell death in human Jurkat cell deficient in FADD assessed as cell viability after 30 hrs by ATP based viability assay in presence of TNFalpha
NIH3T3 [30] = assay: Effect on morphology of mitochondria in mouse 3T3 cells after 24 hrs by anti-cytochrome c immunofluorescence in presence of TNFalpha and zVAD-fmk; format: functional, cell-based
Jurkat [31] = assay: Effect on plasma membrane integrity in human Jurkat cells; format: functional, cell-based
[32] = Inhibition of death receptor signaling mediated necroptotic cell death in human Jurkat cells deficient in FADD and expressing RIP K45M mutant assessed as cell viability after 48 hrs by FACS in presence of AP1510; format: cell-based
NIH3T3 [33] = assay: Effect on actin cytoskeleton in mouse 3T3 cells after 24 hrs by phalloidin-TRITC staining in presence of TNFalpha and zVAD-fmk; format: functional, cell-based

CN1C(=O)C(Cc2c[nH]c3ccccc23)NC1=S (stereo not given) [NECROSTATIN]
inhibition [1]: Active | inhibition (Jurkat [2]): Active | Activity (Jurkat [3]): inactive | Activity (NIH3T3 [4]): inactive | inhibition [5]: Active | inhibition (U-937): inactive | Activity (NIH3T3 [6]): inactive | inhibition [7]: Active | inhibition [8]: Active | inhibition [9]: Active | inhibition [10]: Active | Activity (Jurkat [11]): 0.7% | Activity (Jurkat [12]): inactive | inhibition [13]: Active | Activity (NIH3T3 [14]): inactive | Activity (Jurkat [15]): 12.1% | Activity (Jurkat [16]): inactive | Activity (Jurkat [17]): 44.8% | Activity (Jurkat [18]): inactive | inhibition (Jurkat [19]): Active | inhibition [20]: Active | inhibition (Jurkat [21]): Active | Activity (Jurkat [22]): 41.5% | inhibition [23]: Active | Activity (Jurkat [24]): Active | inhibition [25]: Active | inhibition [26]: Active | Activity (Jurkat [27]): 45.1% | inhibition [28]: Dose-dependent effect | IC50 [29]: 494 nM | inhibition [29]: Active | Activity (NIH3T3 [30]): inactive | Activity (Jurkat [31]): inactive | inhibition [32]: Active | Activity (NIH3T3 [33]): inactive

Reference: ChEMBL document CHEMBL1255230, “Chemical inhibitor of nonapoptotic cell death with therapeutic potential for ischemic brain injury” (Nat Chem Biol, 2005)
